From the supplement of paper PMC10627819

What was measured:
[1] = test system: B. subtilis 168; assay: fitness (endpoint OD595 vs no drug) (fraction); higher = more growth
Procedure, shortened: (§1)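 Fitness was defined as the optical density at the transition into stationary phase relative to the robust mean of no-drug control wells. Values were capped at 1. Cultures were started at OD595 0.01 in 384-well plates (30 µl, or 55 µl for S. pneumoniae) in TSB, LB Lennox or CY at 37 °C. OD595 was recorded every 30 min over 14 h, with the first reading subtracted as background.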

[2] = test system: S. pneumoniae D39V; assay: as above
Procedure, shortened: as §1

[3] = test system: B. subtilis 168; assay: Bliss interaction score (quartile over a dose matrix) (fitness difference); higher = more antagonism (negative = synergy)
Procedure, shortened: (§2)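 The Bliss score is observed fitness minus expected fitness, where the expected value is the product of single-drug fitness values inferred from combination data. Fitness is OD595 at entry into stationary phase normalised to the plate's robust no-drug mean and capped at 1. Scores are reported as quartiles spanning technical, biological and donor/recipient replicates.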

[4] = test system: S. aureus DSM 20231; assay: as above
Procedure, shortened: as §2

[5] = test system: S. aureus Newman; assay: as above
Procedure, shortened: as §2

[6] = test system: S. pneumoniae D39V; assay: as above
Procedure, shortened: as §2
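Throughout, for Bliss interaction score (quartile over a dose matrix): first quartile when negative (synergy) and third quartile when positive (antagonism).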

CC1=C(C(=O)O)N2C(=O)[C@@H](NC(=O)[C@H](N)c3ccccc3)[C@H]2SC1 [Cephalexin] + CC(=O)NC[C@H]1CN(c2ccc(N3CCOCC3)c(F)c2)C(=O)O1 [Linezolid]
fitness
Conditions	first compound 0.125 µg/mL	first compound 0.25 µg/mL	first compound 0.5 µg/mL	first compound 1 µg/mL	first compound 2 µg/mL	first compound 4 µg/mL
[1], partner 0.125 µg/mL	0.569	0.582	0.601	–	–	–
[1], partner 0.25 µg/mL	0.121	0.119	0.117	–	–	–
[1], partner 0.5 µg/mL	0.0468	0.0463	0.0421	–	–	–
[2], partner 0.105 µg/mL	–	–	–	0.606	0.0569	0.0509
[2], partner 0.21 µg/mL	–	–	–	0.475	0.0291	0
[2], partner 0.42 µg/mL	–	–	–	0.332	0.0014	0.0511

fitness, one replicate
Conditions	first compound 0.125 µg/mL	first compound 0.25 µg/mL	first compound 0.5 µg/mL	first compound 1 µg/mL
[1], partner 0.0625 µg/mL	–	0.901	0.932	0.877
[1], partner 0.125 µg/mL	–	–	–	0.66
[1], partner 0.25 µg/mL	–	–	–	0.0828
[2], partner 0.2 µg/mL	0.778	0.84	0.829	–
[2], partner 0.4 µg/mL	0.667	0.707	0.726	–
[2], partner 0.8 µg/mL	0.222	0.36	0.375	–

Conditions	Bliss interaction score
[3]	0.0768
[4]	0.0858
[5]	0.106
[6]	-0.075

CC1=C(C(=O)O)N2C(=O)[C@@H](NC(=O)[C@H](N)c3ccccc3)[C@H]2SC1 [Cephalexin] + CCC(C)C1C(=O)NC(=C)C(=O)NC(C(=O)NC(CSCC(C(=O)N1)NC(=O)/C(=C/C)/NC(=O)C(C(C)CC)N)C(=O)NC2C(SCC(NC(=O)CNC(=O)C3CCCN3C2=O)C(=O)NC(CCCCN)C(=O)NC4C(SCC(NC(=O)CNC(=O)C(NC(=O)C(NC(=O)C(NC(=O)CNC4=O)C)CC(C)C)CCSC)C(=O)NC(CC(=O)N)C(=O)NC(CCSC)C(=O)NC(CCCCN)C(=O)NC5C(SCC6C(=O)NC(C(=O)NC(CSC(C(C(=O)N6)NC(=O)C(NC5=O)C)C)C(=O)NC(CO)C(=O)NC(C(C)CC)C(=O)NC(CC7=CN=CN7)C(=O)NC(C(C)C)C(=O)NC(=C)C(=O)NC(CCCCN)C(=O)O)CC8=CN=CN8)C)C)C)CC(C)C [Nisin]
fitness, one replicate, main component drawn
Conditions	first compound 0.125 µg/mL	first compound 0.25 µg/mL	first compound 0.5 µg/mL	first compound 1 µg/mL
[1], partner 0.5 µg/mL	0.827	0.849	0.85	–
[1], partner 1 µg/mL	0.819	0.833	0.845	–
[1], partner 1.25 µg/mL	–	≥ 1	0.914	0.959
[1], partner 1.6 µg/mL	–	0.8	0.735	0.85
[1], partner 2 µg/mL	0.564	0.546	0.643	–
[1], partner 2.5 µg/mL	–	0.323	0.638	0.621
[1], partner 3.2 µg/mL	–	0.0408	0.05	0.038
[1], partner 4 µg/mL	0.0357	0.0253	0.0342	–
[1], partner 5 µg/mL	–	0.0428	0.0078	0.0511
[1], partner 6.4 µg/mL	–	0.055	0.052	0.0405
[1], partner 8 µg/mL	0.0286	0.0256	0.0219	–
[1], partner 16 µg/mL	0.0223	0.0191	0.051	–
[2], partner 1.6 µg/mL	0.111	0.067	0.12	–
[2], partner 3.2 µg/mL	0.0257	0.0254	0.0215	–
[2], partner 6.4 µg/mL	0.0326	0.0252	0.0194	–

fitness, [2], main component drawn
Conditions	first compound 1 µg/mL	first compound 2 µg/mL	first compound 4 µg/mL
partner 0.4275 µg/mL	–	–	0.0461
partner 0.855 µg/mL	–	0.0896	0.05
partner 1.71 µg/mL	0.0562	0.0571	0.0769

main component drawn
Conditions	Bliss interaction score
[3]	0.0739
[4]	0.0845
[5]	0.0391
[6]	-0.0433

CNC(C)C1CCC(N)C(OC2C(N)CC(N)C(OC3OCC(C)(O)C(NC)C3O)C2O)O1 (stereo unspecified) [Gentamicin] + CC(=O)NC[C@H]1CN(c2ccc(N3CCOCC3)c(F)c2)C(=O)O1 [Linezolid]
[1], partner 0.0625 µg/mL, one replicate, main component drawn
Conditions	fitness
first compound 0.0625 µg/mL	0.827
first compound 0.125 µg/mL	0.0748
first compound 0.25 µg/mL	0.0626

fitness, [2], main component drawn
Conditions	partner 0.105 µg/mL	partner 0.2 µg/mL	partner 0.21 µg/mL	partner 0.4 µg/mL	partner 0.42 µg/mL	partner 0.8 µg/mL
first compound 2 µg/mL	0.881	0.414	0.767	0.228	0.636	0.0665
first compound 4 µg/mL	0.908	0.408	0.759	0.215	0.6	0.0715
first compound 8 µg/mL	0.843	0.37	0.758	0.212	0.579	0.0595

main component drawn
Conditions	Bliss interaction score
[3]	0.144
[4]	0.0779
[5]	0.0901
[6]	-0.136
